Measured values reported in patent publication US4313937A, “Method for producing long-lasting analgesic effects of β-endorphin” (priority 1980, dated 1982).
Values joined by “and” are separate entries in the source; they are usually repeats but may differ in a detail not shown here. Equal entries are not always repeated. “Also recorded” adds a separate entry of the source.

Legend:
[1] = test system: patients with chronic intractable pain; assay: Clinical test of analgesia in patients with chronic intractable pain secondary to metastatic malignancies (visual pain scale); assay type: in vivo, man
Experimental: Twenty-three patients with chronic intractable pain in the back, chest, abdomen, rectum and/or thigh regions secondary to metastatic malignancies were selected for this test.
The protocol was explained to them, and informed consent was obtained. Systemic analgesics were withheld for at least 5 hours before administration of β-endorphin. Neurological examinations and electroencephalography (EEG) were performed immediately before and every 2 hours after the injection of β-endorphin. The visual pain scale ("Adv. Neurol.", 1974, 4, 281-283) was explained to each patient; baseline pain intensity was determined 30 min. before the injection.
β-Endorphin acetate used here was prepared to high purity according to the method described in the Biochem. Biophys. Res. Commun., 74, 248-255 (1977). β-Endorphin acetate, 3 mg (equivalent to 2.5 mg of dried free β-endorphin) with 150 mg of glucose and 3 ml of distilled water (in 8 patients, cases 1-8) or with 3 ml of physiological saline and no glucose (in 7 patients, cases 9-15), was injected into the subarachnoid space (cases 1-14) or epidural space (case 15) of the spinal cord by lumbar puncture between the 2nd and 3rd lumbar vertebrae. After the injection of β-endorphin acetate, the intensity of pain, vital signs, central-nervous-system examination, EEG, electrocardiogram (ECG), pulse rate, respiratory rate, blood-gas analysis, and body temperature were monitored. Simple behavioural parameters were also observed.
In a single-randomization design, three physicians administered successively β-endorphin acetate injection or physiological saline (as a placebo) in random order to 5 patients (cases 9-12, 14). All other patients received only β-endorphin acetate, without placebo.
For the purpose of comparison, β-endorphin acetate was injected intramuscularly (cases 18-20), intravenously (cases 16 and 17), and intracerebrally (cases 20-23).
In this test, all the injections of β-endorphin to patients were sterilized through Millipore filter.

[2] = test system: patient; details: infusion into the cerebral ventricle; cited from earlier work
[3] = test system: man and laboratory animals; details: intravenously or intramuscularly administered; cited from earlier work
[4] = epidural space, 3 mg acetate in 3 ml physiological saline, case 15
[5] = intracerebral (cerebral ventricle), comparison, cases 21-23
[6] = subarachnoid space, 3 mg acetate in 3 ml physiological saline, single patients (cases 9-14)
[7] = subarachnoid space, 3 mg acetate with 150 mg glucose in 3 ml distilled water, single patients (cases 1-8)

## β-Endorphin acetate
[1]; 12 of 15 patients, subarachnoid or epidural space
  duration of drowsiness after injection: 1 to 4 h
[1]; 13 of the 15 patients, subarachnoid or epidural space
  time until pain disappeared after the injection: 1 to 5 min
[1]; all 15 patients, subarachnoid or epidural space of the spinal cord
  relief of pain reported: complete relief of pain
[1]; all the patients, subarachnoid or epidural space
  arousability: easily arousable by verbal stimuli
[1]; case No. 5 (in 40 min. after injection) and case No. 7 (in 10 min. after injection)
  duration of sleep after injection: 80 min and 110 min
[1]; during the period of pain relief
  perception of venepuncture and light touch: remained intact
[1]; during the procedure
  abnormalities in the ECG or EEG: No abnormalities
[1]; [4]
  Pain relief after β-endorphin, Duration: 68 h
  Pain relief after β-endorphin, Onset: 2 min
[1]; epidural space, 3 mg acetate in physiological saline, case 15
  Remarks: Sleep
[1]; injected into cerebral ventricle, all 3 patients
  duration of relief of pain: 8 to 12 h
[1]; [5]
  Pain relief after β-endorphin, Duration: 10 h and 12 h and 8 h
  Pain relief after β-endorphin, Onset: 3 min and 4 min
[1]; intramuscular, 2 of 3 patients
  analgesic effect: no analgesic effect
[1]; intravenous, one of 2 patients
  analgesic effect: no analgesic effect
[1]; intravenous, the other of 2 patients, considered to be placebo effect
  duration of analgesic effect: one
[1]; subarachnoid or epidural space
  duration of pain relief after the injection, average: 33.4 h
  signs of respiratory depression, arterial blood-gas changes, nausea, hypotension, hypothermia, catatonia, or muscle rigidity: No signs
[1]; subarachnoid or epidural space, all the patients
  discomfort caused by the injection: no discomfort
[1]; [6]
  Pain relief after β-endorphin, Duration: 24 h. and 25 h. and 47 h. and 731/2 and 51 h. and 221/2
  Pain relief after β-endorphin, Onset: 16 min and 2 min
[1]; subarachnoid space, 3 mg acetate in physiological saline, single patients (cases 9-14)
  Remarks: Sleep; also recorded: Euphoria; also recorded: somnolence
[1]; [7]
  Pain relief after β-endorphin, Duration: 27 h. and 271/2 and 261/2 and 291/2 and 24 h. and 36 h. and 251/2 and 281/2
  Pain relief after β-endorphin, Onset: 5 min and 4 min and 1 min and 2 min
[1]; subarachnoid space, 3 mg acetate with glucose, single patients (cases 1-8)
  Remarks: Somnolence; also recorded: Sleep; also recorded: somniloquy; also recorded: Euphoria
[1]; the other 6 of the 8 patients who slept
  duration of sleep after injection: 60 to 120 min
[2]
  side effects: induces various undersirable side effects
[3]
  analgesia: no statistically significant analgesia
